Measured values: patent publication US20040242459A1 (priority 2001, published 2004)
Marks after values point to notes of the source that are not given here.

Columns and labels:
[1] = test system: adjuvant-induced arthritis in female Lewis rats; details: for Secondary Foot Volume % Inhibition Compared to Vehicle Day 21-0 / Change in Secondary Foot Volume Day 21-0 / Change in Secondary Foot Volume Day 14-0 / Secondary Foot Volume % Inhibition Compared to Vehicle Day 14-0: contralateral paw; for Change in Secondary Foot Volume Day 21-0: mean, SD wrapped to next line; for Change in Secondary Foot Volume Day 14-0 / Change in Primary Foot Volume Day 4-0 / change in body weight Day 21-0 / change in body weight Day 14-0: p.o. q.d.; for Change in Secondary Foot Volume Day 14-0 / Change in Primary Foot Volume Day 4-0 / change in body weight Day 14-0: Compounds 1, 2, 4, 6 30 mg/kg/day; for Change in Secondary Foot Volume Day 14-0 / Change in Primary Foot Volume Day 4-0: Compound 3 50, Compound 5 100, indomethacin 2; for Change in Secondary Foot Volume Day 14-0 / Change in Primary Foot Volume Day 21-0 / Change in Primary Foot Volume Day 4-0 / Change in Primary Foot Volume Day 14-0 / radiographic total scores on day 21, Primary (injected) paw / radiographic total scores on day 21, Secondary (contralateral) Paw / change in body weight Day 21-0 / change in body weight Day 14-0 / Spleen / Thymus (mg) / Thymus: mean ± SD; for Secondary Foot Volume % Inhibition Compared to Vehicle Day 14-0 / Primary Foot Volume % Inhibition Compared to Vehicle Day 4-0 / Primary Foot Volume % Inhibition Compared to Vehicle Day 14-0 / Change in Primary Foot Volume Day 14-0: same doses p.o. q.d.; for radiographic total scores on day 21, Primary (injected) paw / radiographic total scores on day 21, Secondary (contralateral) Paw: maximum score per foot 26; for change in body weight Day 21-0: indomethacin 2 mg/kg/day; for change in body weight Day 14-0: Compound 3 50, Compound 5 100, indomethacin 2 mg/kg/day; for body weight gain compared with vehicle-treated animals: prophylactic, Compound 1 30 mg/kg q.d.; for Spleen / Thymus (mg) / Thymus: weight at necropsy, day of euthanasia 21 (Compound 1, indomethacin) or 15 (Compounds 2-6); for prevention of swelling of primary or secondary paws: up to day 14, rats then euthanized
Description: Nine groups of 10 rats each were injected with an emulsion containing 0.5 mg of Mycobacterium butyricum in 0.1 ml of light mineral oil, and a negative control group of 10 rats was not injected with adjuvant. Body weights, primary (injected) and contralateral (non-injected) paw volumes (determined by mercury displacement plethysmography) and lateral radiographs (obtained under Ketamine and Xylazine anesthesia) were determined before (day-1) and at various time points including 21 days following adjuvant injection. The rats were anesthetized with an intramuscular injection of 0.03-0.1 ml of a combination of Ketamine (87 mg/kg) and Xylazine (13 mg/kg) for radiographs and injection of adjuvant. Lateral to medial radiographs were made of both hind paws on days 0 and 21 for using the Faxitron (45 kVp, 30 seconds or 45 kVp, 1 second) and Kodak X-OMAT TL film, and were developed in an automatic processor. […] Specific criteria were used to establish the numerical grade of severity for each radiographic change. The maximum possible score per foot was 26. Compounds or vehicle were administered prophylactically beginning post injection of adjuvant and continuing for 21 days. The Compounds were prepared weekly, refrigerated in the dark until used, and vortex mixed immediately prior to administration. […] The liver, thymus and spleens of all rats were removed and weighed and both hind paws were removed and radiographed.
Two-factor (‘treatment’ and ‘time’) analysis of variance with repeated measures on ‘time’ were applied to the percent changes for body weight and foot volumes and to the rank-transformed radiographic total scores. A post hoc Dunnett's test was conducted to compare the effect of treatments to vehicle. A one-way analysis of variance was applied to the thymic and spleen weights followed by the Dunnett's test to compare the effect of treatments to vehicle.
Compounds or vehicle (0.5% Methocel in sterile water) were administered by oral gavage once daily for 21 days following induction of arthritis in female Lewis rats via the sub plantar injection of 0.1 ml of light mineral oil containing 0.5 mg of Mycobacterium butyricum. Control animals were not injected with adjuvant. Body weights were measured 1 day prior to (i.e. day 0) and at 14 and 21 days post induction of arthritis. The data in Table 1 represent the mean increase or decrease in body weight ±1 standard deviation for groups of 9 to 10 animals.
Compounds or vehicle (0.5% Methocel in sterile water) were administered by oral gavage once daily for 21 days following induction of arthritis in female Lewis rats via the sub plantar injection of 0.1 ml of light mineral oil containing 0.5 mg of Mycobacterium butyricum. Control animals were not injected with adjuvant.
(§1) Injected foot volumes were measured by mercury displacement plethysmography prior to induction of arthritis, and on days 4, 14 and 21 post induction of arthritis. The data represent the mean increase in foot volume ±1 standard deviation for groups of 9 to 10 animals. The extent of paw swelling in compound-treated animals was compared to the mean of that in the vehicle-treated group, and percentage inhibition was calculated for each dose level of compound.
as §1, with “Contralateral foot” for “Injected foot”, “prior to,” for “prior to induction of arthritis,”, “and at” for “and on”, “days” for “days 4,”
[…] Data represent the mean weights of organs in mg ±1 standard deviation for groups of 9 to 10 animals.
Total radiographic scores were derived from examination of lateral radiographs obtained prior to, and on day 21 post induction of arthritis.

[2] = target: T1, recombinant human PPARδ (GST-PPARδ) (Homo sapiens, UniProt Q03181); experiment: Scintillation Proximity Assay, displacement of [3H2]Compound B from PPARδ; assay type: binding; details: SPA, radioligand
T1 construct: The full length human cDNAs for PPARδ and PPARα were subcloned into the pGEX-KT expression vector; made in house; host or cells: E. coli
T1 sequence (Q03181 1-441): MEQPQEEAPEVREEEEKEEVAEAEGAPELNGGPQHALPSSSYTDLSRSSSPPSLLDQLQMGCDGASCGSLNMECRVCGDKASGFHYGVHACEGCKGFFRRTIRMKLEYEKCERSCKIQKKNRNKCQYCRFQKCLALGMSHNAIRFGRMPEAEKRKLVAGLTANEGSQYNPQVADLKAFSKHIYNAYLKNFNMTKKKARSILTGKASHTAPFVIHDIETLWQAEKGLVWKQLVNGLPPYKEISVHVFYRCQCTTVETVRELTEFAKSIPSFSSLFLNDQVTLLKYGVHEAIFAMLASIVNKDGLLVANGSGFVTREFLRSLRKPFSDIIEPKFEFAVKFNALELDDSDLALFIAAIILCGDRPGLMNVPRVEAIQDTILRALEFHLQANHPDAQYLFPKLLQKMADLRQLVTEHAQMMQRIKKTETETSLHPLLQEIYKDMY
Source text: As an approach to identifying human PPAR agonists, a Scintillation Proximity Assay was used to characterize PPAR-γ, PPAR-δ, and PPAR-α ligands.
Human PPARγ2, human PPARδ and human PPARα were expressed as GST-fusion proteins in E. coli. The full length human cDNA for PPARγ 2 was subcloned into the pGEX-2 T expression vector (Amersham Pharmacia Biotech, Inc.). The full length human cDNAs for PPARδ and PPARα were subcloned into the pGEX-KT expression vector (Amersham Pharmacia Biotech, Inc.). E. coli containing the respective plasmids were propagated, induced, and harvested by centrifugation. The resuspended pellet was broken in a French press and debris removed by centrifugation. Recombinant human PPAR receptors were purified by affinity chromatography on glutathione sepharose. After application to the column, and one wash, receptor was eluted with glutathione. Glycerol (10%) was added to stabilize the receptor and aliquots were stored at −80° C.
After incubation for ˜16 h at 15° C. with shaking, the assay plates were counted in a Packard Topcount with quench correction.

[3] = test system: PPAR-α, PPAR-γ and PPAR-δ; experiment: Classification of ligands according to their PPAR activity (Table A); design: species or system human; details: classification based on IC50 and EC50 data of Table B
[4] = Compound 1 30 mg/kg/day, indomethacin 2 mg/kg/day p.o. q.d.
[5] = day 21, 30 mg/kg q.d. prophylactic
[6] = injected paw, Compound 1 30 mg/kg/day, indomethacin 2 mg/kg/day p.o. q.d.

| Compound | Secondary Foot Volume % Inhibition Compared to Vehicle Day 21-0 [1, 4] [%] | Change in Secondary Foot Volume Day 21-0 [1, 4] [µL] | Change in Secondary Foot Volume Day 14-0 [1] | Secondary Foot Volume % Inhibition Compared to Vehicle Day 14-0 [1] [%] | radiographic total scores of contralateral paws compared with vehicle ([1]; day 21) | Change in Primary Foot Volume Day 21-0 [1, 6] | Change in Primary Foot Volume Day 4-0 ([1]; injected paw) | Primary Foot Volume % Inhibition Compared to Vehicle Day 4-0 ([1]; injected paw) [%] | Primary Foot Volume % Inhibition Compared to Vehicle Day 14-0 ([1]; injected paw) [%] | Change in Primary Foot Volume Day 14-0 ([1]; injected paw) | radiographic total scores on day 21, Primary (injected) paw [1, 4] | radiographic total scores on day 21, Secondary (contralateral) Paw [1, 4] | change in body weight Day 21-0 ([1]; Compound 1 30 mg/kg/day) | change in body weight Day 14-0 [1] | body weight gain compared with vehicle-treated animals [1] | degree of thymic involution compared with vehicle ([1]; rat, in vivo) | Spleen [1] [mg] | Thymus (mg) [1] | prevention of swelling of primary or secondary paws [1] | Thymus [1] [mg] | further results |
| --- | --- | --- | --- | --- | --- | --- | --- | --- | --- | --- | --- | --- | --- | --- | --- | --- | --- | --- | --- | --- | --- |
| Cc1cc(SCc2sc(-c3ccc(C(F)(F)F)cc3)nc2C)ccc1OCC(=O)O.[Na+] [Compound 1] | 77.8 | 246.0 | 38 ± 161^++ μL | 92.4 | significantly less | 2612 ± 909 µL | 1510 ± 523^+ μL | 23.1 | 30.0 | 1530 ± 659**^++ μL | 13.0 ± 7.2 | 1.8 ± 3.3^++ | 2.9 ± 7.4**^++ grams | 1.9 ± 6.6**^++ grams | gained more weight than did vehicle-treated animals | less severe | 601.0 ± 52.8 | 275.0 ± 50.4**^++ mg | – | – | swelling of the contralateral (secondary) paw [1, 5]: inhibited the day 21 swelling of the contralateral (secondary) paw; swelling of the primary (injected) paw [1, 5]: did not affect the swelling of the primary (injected) paw; Liver (mg) ([1]; rat, in vivo): 1209.0 ± 129.0**^++ mg; liver weight compared with vehicle ([1]; rat, in vivo): significantly heavier |
| COc1ccc2c(c1)c(CC(=O)O)c(C)n2C(=O)c1ccc(Cl)cc1 [Indomethacin, indomethacin, reference compound] | 79.2 | 201.0 | 275 ± 138^++ μL | 62.0 | significantly less | 499 ± 135^++ μL | 798 ± 164^++ μL | 59.2 | 65.7 | 799 ± 159*^++ μL | 4.3 ± 1.3^++ | 3.3 ± 1.3**^++ | 11.6 ± 8.0**^++ grams | 8.6 ± 7.7**^++ grams | gained more weight than did vehicle-treated animals | less severe | 738.0 ± 124.0 | 426.0 ± 69.0^++ mg | – | – | radiographic total scores of primary paws compared with vehicle ([1]; day 21): significantly less; Primary Foot Volume % Inhibition Compared to Vehicle Day 21-0 [1, 6]: 79.2%; Liver ([1]; rat, in vivo): 866.0 ± 86.0 mg |
| CCCc1c(OCCCSc2ccc(CC(=O)O)cc2Cl)ccc2c(C(F)(F)F)noc12 [Compound B, 3-chloro-4-(3-(7-propyl-3-trifluoromethyl-6-benz-[4,5]-isoxazoloxy)propylthio)phenylacetic acid, reference compound] | – | – | – | – | – | – | – | – | – | – | – | – | – | – | – | – | – | – | – | – | Kd [2]: ~1 nM |
| CC(C)OC(=O)C(C)(C)Oc1ccc(C(=O)c2ccc(Cl)cc2)cc1 [Compound 5, Fenofibrate, reference compound] | – | – | 824 ± 186 µL | – | – | – | 1421 ± 212^+ μL | – | – | 1945 ± 415 µL | – | – | – | −7.6 ± 5.3 grams | – | – | 644.4 ± 159.2 | – | failed to prevent swelling of either the primary or secondary paws | 155.3 ± 27.8 | – |
| Cc1cccc(Nc2cc(Cl)nc(SCC(=O)O)n2)c1C [Compound 4, WY-14643, reference compound] | – | – | 704 ± 421 µL | 22.1 | – | – | 2133 ± 266 µL | 0 | – | 2585 ± 733 µL | – | – | – | −15.2 ± 6.8 grams | – | – | 665.1 ± 69.8 | – | failed to prevent swelling of either the primary or secondary paws | 146.8 ± 33.4 | PPAR Activity [3]: Alpha Agonist |
| CN(CCOc1ccc(CC2SC(=O)NC2=O)cc1)c1ccccn1 (stereo not drawn) [Compound 6, Rosiglitazone, reference compound] | – | – | – | – | – | – | – | – | – | – | – | – | – | 0.4 ± 6.4**^++ grams | – | – | 634.5 ± 91.4 | – | failed to prevent swelling of either the primary or secondary paws | 187.8 ± 50.4 | PPAR Activity [3]: Gamma Agonist |
